Entries after “also recorded” stand apart in the source; their conditions may differ.
Test: Multiple particle tracking of particles in CF sputum with mucolytic pretreatment
Format: in vitro ADME, human
Details: for effect on overall ensemble averaged transport rates of nanoparticles: CF mucus, 30 mins post-treatment, 200 nm particles (rhDNase), 100 nm particles (0.4 mM NAC)
Method: Human respiratory sputum was expectorated from male and female CF patients (ages 18-35). CF sputum samples from multiple patients were pooled, freeze-dried, and reconstituted in sputum buffer by stirring at 4° C. to attain a large volume of homogeneous CF sputum. The volume of sputum buffer added to reconstituted CF sputum samples was determined by mass measurements (the reconstituted CF sputum had the equivalent mass of the fresh CF sputum samples).
[…] Mucus samples (200 μL) were centrifuged and a portion of the supernatant (40 μL) was replaced with mucolytic solution or PBS to maintain the initial concentration of mucus solids and eliminate any dilution effects. The displacements of particles in the no treatment (PBS) control were identical to that of particles embedded in an unprocessed mucus sample, which was not centrifuged. The tracking resolution, evaluated by tracking 500 nm polystyrene probes in glycerol, was […].
The mechanism of particle transport over short and long time scales was classified based on the concept of relative change (RC) of effective diffusivity (Deff). In brief, RC values of particles at short and long time scales were calculated by dividing the Deff of a particle at a probed time scale by the Deff at an earlier reference time scale. By calculating RC values for two time regimes (i.e., short and long time scales), one can obtain the transport mode that describes the particle transport properties over different length and temporal scales. RCshort was defined at τref=0.2 s and τprobe=1 s, whereas RClong was found at reference τref=1 s and τprobe=2s. An RC standard curve, which plots the 95% distribution range of Deff for purely Brownian particles over time scale, was generated based on Monte Carlo simulations and confirmed by tracking polystyrene nanoparticles in glycerol (data not shown). The transport modes of particles that display RC values below the […] range for either short or long time scales were classified as hindered, and the rest were classified as diffusive. Immobile particles are defined as those that display an average MSD smaller than the 10-nm resolution at a time scale of 1 s.

Molecule | enhancement of diffusive fraction of 500 nm PEG-PS compared to no treatment control (500 nm PEG-PS particles, CF mucus pretreated with NAC) | increase of transport rates (ensemble geometric mean square displacement) compared to no treatment control (PBS) (500 nm PEG-PS particles, pretreatment of CF mucus with neutralized NAC) | effect on overall ensemble averaged transport rates of nanoparticles (listed as NAC) | effect on overall ensemble averaged transport rates of nanoparticles
CC(=O)N[C@@H](CS)C(=O)O [N-acetyl-L-cysteine] | 3 fold | 10.7 fold | significantly improved; also recorded: increased significantly | –
rhDNase: mucus degrading agent which hydrolyzes linear DNA, used clinically to increase mucus clearance (protein, UniProt P24855 23-282, looked up) Deoxyribonuclease-1: LKIAAFNIQTFGETKMSNATLVSYIVQILSRYDIALVQEVRDSHLTAVGKLLDNLNQDAPDTYHYVVSEPLGRNSYKERYLFVYRPDQVSAVDSYYYDDGCEPCGNDTFNREPAIVRFFSRFTEVREFAIVPLHAAPGDAVAEIDALYDVYLDVQEKWGLEDVMLMGDFNAGCSYVRPSQWSSIRLWTSPTFQWLIPDSADTTATPTHCAYDRIVVAGMLLRGAVVPDSALPFNFQAAYGLSDQLAQAISDHYPVEVMLK | – | – | – | reduced the overall ensemble averaged transport rates; also recorded: did not correlate to improved particle transport
